# Laboratory results reported in patent publication US20240254547A1, “HIGHLY ACCURATE […]” (KAO CORPORATION, priority 2018, published 2024).
# Legend:
# [1] = tested on: Genomic DNA from TA100 strain of Salmonella typhimurium (S. typhimurium) LT-2; experiment: Genomic mutation analysis of mutagen-exposed TA100 strain by sequencing with consensus read sequences considering complementary strands; assay type: cell-based; conditions: ENU group
# Protocol: (§1) Exposure of cells to ENU was performed in accordance with the pre-incubation method of the Ames test (K. Mortelmans et al. Mutat. Res.—Fundam. Mol. Mech. Mutagen. 455:29-60, 2000). TA100 strain was seeded in 2 mL of Nutrient Broth No. 2 (produced by Oxoid Limited), and subjected to shaking culture at 37° C. and 180 rpm for 4 hours to afford pre-culture solution with an O.D.660 value of 1.0 or higher. ENU (produced by Sigma-Aldrich Co. LLC.) was diluted with dimethylsulfoxide (DMSO; produced by Wako Pure Chemical Industries, Ltd.). Into test tubes, 100 μL of the ENU solution, 500 μL of 0.1 M phosphate buffer, and 100 μL of the pre-culture solution were added (amount of ENU: 62.5, 125, 250, 500, and 1,000 μg/tube), and the resultants were subjected to shaking culture at 100 rpm in a water bath at 37° C. for 20 minutes (ENU group). For a control group, 100 μL of solvent (DMSO) was added instead of the ENU solution. After shaking culture for 20 minutes, the test tubes each containing a culture solution were taken out of the water bath, and 50 μL of each culture solution was added to 2 mL of Nutrient Broth solution aliquoted in advance, and the resultant was further cultured in an incubator at 37° C. and 180 rpm for 14 hours, from which the bacterial suspensions were then collected and centrifuged at 7,500 rpm for 5 minutes, and the supernatants were removed to collect the bacterial cells.
# From the bacterial cells obtained in 1) (control group and ENU group), total DNA was collected by using a DNeasy Blood & Tissue Kit (produced by QIAGEN) in accordance with the recommended protocol. The double-stranded DNA concentration of each DNA sample obtained was measured by using a Qubit3.0 Fluorometer (produced by Thermo Fisher Scientific) with a Qubit™ dsDNA BR Assay Kit attached thereto.
# From each DNA sample (control group and ENU group) after being subjected to concentration measurement in 2), a plurality of samples each of which was to give 100 ng of DNA were prepared, and each sample was fragmented into pieces having a length of approximately 350 bp on average by using a DNA Shearing System ME220 (produced by Covaris Inc.) in accordance with the recommended protocol. The fragmented DNA obtained was subjected to library preparation by using a TruSeq Nano DNA Library Prep Kit (produced by Illumina, Inc., hereinafter abbreviated as TruSeq) in accordance with the recommended protocol.
# In library preparation, the DNA fragments obtained were each labeled with adapter sequences each including a label sequence at a terminal, as described in Example 1. The resultant was subjected to PCR under different conditions listed in Table 1 to prepare libraries for sequencing, thus preparing labeled libraries for sequencing with different conditions. Adapter sequences attached to the TruSeq from Illumina, Inc. were used. […] Thus, one of two adapters was bound to each fragment in each library. […] Each of the resulting ligation reaction solutions was purified in accordance with the recommended protocol, and then subjected to concentration measurement for ligation products by using a High Sensitivity D5000 Kit in an Agilent 4200 TapeStation (produced by Agilent Technologies). […] The mixed solution obtained was subjected to purification through PCR in accordance with the recommended protocol. To adjust difference in amount of input DNA in PCR, each sample was amplified through PCR cycles the number of which is shown in Table 1 to adjust the amount of DNA in the library.
# Each of the libraries prepared in 3) was subjected to sequencing by using a HiSeq 2500 (produced by Illumina, Inc.), where the read length was set to 2*125 bp for Library Nos. 1 to 8 shown in Table 1, and to 2*100 bp for Library Nos. 9 to 14. Sequencing data of approximately 10 Gbp were acquired on average per library.
# Raw read sequences acquired through sequencing were edited and subjected to mutation analysis in accordance with the analysis flow illustrated above in Schematic Diagram 4. […]
# [2] = tested on: TA100 strain of Salmonella typhimurium (S. typhimurium) LT-2; experiment: Ames test (pre-incubation method), number of revertant colonies; assay type: cell-based; conditions: for Number of revertant colonies in Ames test, Mean: mean of three plates
# Protocol: as §1
# For the Ames test, a bacterial suspension exposed to ENU by using the pre-incubation method was produced under the above-described conditions, and 2 mL of top agar (containing 1% NaCl, 1% agar, 0.05 mM histidine, and 0.05 mM biotine) warmed to 45° C. was added thereto and the resultant was suspended by using a Vortex, and poured onto a minimal glucose agar medium (Tesmedia® AN; produced by Oriental Yeast Co., Ltd.) to form a layer. The resulting plate was subjected to culturing at 37° C. for 48 hours, and the number of colonies observed was counted.
structure (smiles),measurement,setting,value
"CCN(N=O)C(N)=O [ENU, ethylnitrosourea]",GC to AT mutation frequency,"[1]; 10 Gbp sequencing data, Library No. 1, PCR input DNA 20000 amol",10.48 /10^5 bp
same,GC to AT mutation frequency,"[1]; 10 Gbp sequencing data, Library No. 4, PCR input DNA 2500 amol",37.70 /10^5 bp
same,GC to AT mutation frequency,"[1]; 10 Gbp sequencing data, Library No. 5, PCR input DNA 1250 amol",46.50 /10^5 bp
same,GC to AT mutation frequency,"[1]; 10 Gbp sequencing data, Library No. 6, PCR input DNA 625 amol",55.30 /10^5 bp
same,GC to AT mutation frequency,"[1]; 10 Gbp sequencing data, Library No. 7, PCR input DNA 313 amol",56.57 /10^5 bp
same,GC to AT mutation frequency,"[1]; 10 Gbp sequencing data, Library No. 8, PCR input DNA 156 amol",60.42 /10^5 bp
same,GC to AT mutation frequency,"[1]; 10 Gbp sequencing data, Library No. 9, PCR input DNA 156 amol",61.01 /10^5 bp
same,GC to AT mutation frequency,"[1]; 10 Gbp sequencing data, Library No. 10, PCR input DNA 78 amol",63.62 /10^5 bp
same,GC to AT mutation frequency,"[1]; 10 Gbp sequencing data, Library No. 11, PCR input DNA 39 amol",63.38 /10^5 bp
same,GC to AT mutation frequency,"[1]; 10 Gbp sequencing data, Library No. 12, PCR input DNA 20 amol",63.89 /10^5 bp
same,GC to AT mutation frequency,"[1]; 10 Gbp sequencing data, Library No. 13, PCR input DNA 10 amol",63.35 /10^5 bp
same,GC to AT mutation frequency,"[1]; 10 Gbp sequencing data, Library No. 14, PCR input DNA 5 amol",60.05 /10^5 bp
same,Frequency of GC→AT mutation compared with the other mutation patterns,"[1]; 10 Gbp sequencing data, each library",highest
same,Relative mutation frequency to 20 amol (GC to AT),"[1]; Library No. 1, PCR input DNA 20000 amol",16.41
same,Relative mutation frequency to 20 amol (GC to AT),"[1]; Library No. 4, PCR input DNA 2500 amol",59.01
same,Relative mutation frequency to 20 amol (GC to AT),"[1]; Library No. 5, PCR input DNA 1250 amol",72.79
same,Relative mutation frequency to 20 amol (GC to AT),"[1]; Library No. 6, PCR input DNA 625 amol",86.56
same,Relative mutation frequency to 20 amol (GC to AT),"[1]; Library No. 7, PCR input DNA 313 amol",88.55
same,Relative mutation frequency to 20 amol (GC to AT),"[1]; Library No. 8, PCR input DNA 156 amol",94.57
same,Relative mutation frequency to 20 amol (GC to AT),"[1]; Library No. 9, PCR input DNA 156 amol",95.50
same,Relative mutation frequency to 20 amol (GC to AT),"[1]; Library No. 10, PCR input DNA 78 amol",99.59
same,Relative mutation frequency to 20 amol (GC to AT),"[1]; Library No. 11, PCR input DNA 39 amol",99.20
same,Relative mutation frequency to 20 amol (GC to AT),"[1]; Library No. 12, PCR input DNA 20 amol (reference)",100.00
same,Relative mutation frequency to 20 amol (GC to AT),"[1]; Library No. 13, PCR input DNA 10 amol",99.16
same,Relative mutation frequency to 20 amol (GC to AT),"[1]; Library No. 14, PCR input DNA 5 amol",94.00
same,Number of revertant colonies after exposure to ENU versus DMSO control,"[2]; 62.5 to 1,000 μg/plate",increase
same,"Number of revertant colonies in Ames test, Mean",[2]; ENU 62.5 μg/plate,207.3
same,Number of revertant colonies in Ames test,"[2]; ENU 62.5 μg/plate, plate 1",220
same,Number of revertant colonies in Ames test,"[2]; ENU 62.5 μg/plate, plate 2",192
same,Number of revertant colonies in Ames test,"[2]; ENU 62.5 μg/plate, plate 3",210
same,"Number of revertant colonies in Ames test, Mean",[2]; ENU 125 μg/plate,381.3
same,Number of revertant colonies in Ames test,"[2]; ENU 125 μg/plate, plate 1",430
same,Number of revertant colonies in Ames test,"[2]; ENU 125 μg/plate, plate 2",391
same,Number of revertant colonies in Ames test,"[2]; ENU 125 μg/plate, plate 3",323
same,"Number of revertant colonies in Ames test, Mean",[2]; ENU 250 μg/plate,1389.0
same,Number of revertant colonies in Ames test,"[2]; ENU 250 μg/plate, plate 1",1482
same,Number of revertant colonies in Ames test,"[2]; ENU 250 μg/plate, plate 2",1359
same,Number of revertant colonies in Ames test,"[2]; ENU 250 μg/plate, plate 3",1326
same,"Number of revertant colonies in Ames test, Mean",[2]; ENU 500 μg/plate,3960.7
same,Number of revertant colonies in Ames test,"[2]; ENU 500 μg/plate, plate 1",4095
same,Number of revertant colonies in Ames test,"[2]; ENU 500 μg/plate, plate 2",4006
same,Number of revertant colonies in Ames test,"[2]; ENU 500 μg/plate, plate 3",3751
same,"Number of revertant colonies in Ames test, Mean",[2]; ENU 1000 μg/plate,2534.0
same,Number of revertant colonies in Ames test,"[2]; ENU 1000 μg/plate, plate 1",1659
same,Number of revertant colonies in Ames test,"[2]; ENU 1000 μg/plate, plate 2",3206
same,Number of revertant colonies in Ames test,"[2]; ENU 1000 μg/plate, plate 3",2737
